In patent publication US10501453B2, “Benzothiazole or benzoxazole compounds as SUMO activators” (Icahn School of Medicine at Mount Sinai, priority 2012, dated 2019):

How the values were obtained:
[1] = system: NCI-60 human tumor cell; test: NCI-60 human tumor cell screen; assay type: cell-based; conditions: NCI-60 set
Procedure: The NCI-60 human tumor cell screen used by the National Cancer Institute's Developmental Therapeutics Program was performed on Example 1. The NCI-60 set includes leukemia, lymphomas, and carcinomas of ovarian, renal, breast, prostate, colon, lung and CNS origin.

[2] = system: SERCA2a; test: SERCA2a SUMOylation assay in HEK-293 cells (immunoprecipitation/immunoblotting); assay type: cell-based
Source text: The following antibodies were used for immunoblotting and immunoprecipitation (IP): polyclonal anti-SERCA2a (21th century Biochem Inc.), monoclonal anti-GAPDH (Sigma-Aldrich, catalog no. G8795), monoclonal anti-SUMO 1 (Cell Signaling Technology Inc., catalog no. 4930), anti-mouse horseradish peroxidase (HRP) (Pierce Biotechnology Inc., catalog no. 32430), and anti-rabbit HRP (Pierce Biotechnology Inc., catalog no. 32460). YFP-tagged SUMO1, pcDNA3.0-SERCA2a, and HA-tagged Ubc9 plasmids were used for the transfection. The plasmid DNA was amplified in the Escherichia coli strain DH5a and extracted by using a commercial purification kit (Qiagen, catalog no. 12263). Purified plasmid was resuspended in sterile TE buffer (10 mM Tris-HCl and 1 mM EDTA, pH 7.6). Only the preparation highest purity (A260/A280>1.8) was used for transfection. 1 μg of each plasmid was used for transfection. HEK-293 cells (American Type Culture Collection, catalog no. CRL-1873) were grown at 37° C. and under a 5% CO2 humidified atmosphere in Dulbecco's modified Eagle's medium (DMEM, Cellgro, catalog no. 10-0 13-CM) containing 10% fetal bovine serum (SAFC Bioscience, catalog no. 12107) and 100 i.u of penicillin/ml and 100 μg of streptomycin/ml. HEK-293 cells were seeded at a density of 3-5×10^5 cells per 60 mm culture dish in DMEM. The cells were transiently transfected using Lipofectamine 2000 (Invitrogen, catalog no. 11668) with indicated expression plasmids. After 24 hours, the cells were treated with either small molecules or dimethyl sulfoxide (DMSO, Sigma-Aldrich, catalog no. D2650).
Each compound was added at 10 μM. DMSO was used as a control. After 24 hours at 37° C., SERCA2a SUMOylation and functional analysis were determined.
Equal amounts of protein from either small molecule treated or DMSO treated cells or immunoprecipitates were resolved by 7.5% SDS-PAGE and transferred to nitrocellulose membranes (Bio-Rad, catalog no. 162-0112). The membranes were blocked for 1 hour at room temperature with 5% non-fat milk (Cell Signaling Technology Inc., catalog no. 9999) in TBST (10 mM Tris-HCl, 150 mM NaCl, and 0.05% tween-20, pH 8.0). The blots were incubated with specific primary antibodies at 4° C. for overnight. The blots were then washed five times for 10 minutes each with TBST and incubated for 1 hour with HRP-conjugated secondary antibodies in TBST with 5% non-fat milk. After five times TBST washes, the protein bands were visualized with enhanced chemiluminescence (Pierce Biotechnology Inc., catalog no. 32132) and exposed to x-ray film (Denville Scientific Inc., catalog no. E3012). GAPDH expression provided an internal control.
Post-transfection (48 hours), the HEK-293 cells were rinsed twice with phosphate-buffered saline (PBS, Cellgro, catalog no. 21-040-CM) and lysed in 1% Nonidet P-40 lysis buffer (Boston Bioproducts, catalog no. BP-119) with 10 mM N-ethylmaleimide (NEM, Sigma-Aldrich, catalog no. N3876) and […] inhibitor cocktail (Complete Mini Tablet, Roche Applied Science, catalog no. 11836153001). 2 mg of protein were mixed with the anti-SERCA2a antibodies for overnight at 4° C. in lysis buffer. Pre-washed protein A-Separose beads (Pierce Biotechnology Inc., catalog no. 20333) was added to each sample and incubated 1 hour at 4° C. with gentle rocking. Immunocomplexes were washed with lysis buffer three times and precipitated by centrifugation at 12000×g for 10 seconds. The immunocomplexes were resuspended in SDS sample buffer and subjected to immunoblotting. Controls for the immunoprecipitations were performed using an anti-rabbit IgG equal to that of the primary precipitating antibody. Ten percent of whole cell lysates used in the immunoprecipitation was loaded for subsequent immunoblotting.
The ability of the Example compound to SUMOylate SERCA2a was examined using an in vitro system in HEK 293 cells where both SERCA2a and SUMO 1 are expressed. […]

[3] = system: adult rat ventricular myocytes (ARVMs); test: Cell shortening/re-lengthening and calcium transient of ARVMs (IonOptix); assay type: cell-based
[4] = system: Yorkshire pigs with severe heart failure; test: Contractility in Yorkshire pigs with severe heart failure secondary to myocardial infarction; assay type: in vivo, pig; conditions: 5 mg/kg, intracoronary
Procedure: Example 1 was dosed in Yorkshire pigs at 5 mg/kg with severe heart failure secondary to myocardial infarction.
The experimental protocols complied with the National Institutes of Health Guide for the Care and Use of Laboratory Animals and standards of United States regulatory agencies. They were approved by the Institutional Animal Care and Use Committee of the Mount Sinai School of Medicine. Yorkshire pigs were pre-medicated using intramuscular Telazol™ (8.0 mg/kg; tiletamine hydrochloride and zolazepam hydrochloride; Fort Dodge Animal Health, Fort Dodge, Iowa). After the placement of an intravenous line, animals were intubated and ventilated with 100% oxygen. General anesthesia was maintained with intravenous propofol (8-10 mg/kg/hr) throughout the procedure.
The animals underwent a 2-hour balloon occlusion of the proximal LAD (left anterior descending coronary artery) followed by reperfusion. Ten minutes before MI creation a continuous infusion of 20 mEq potassium acetate, 75 mg amiodarone, and 2 mg atropine was initiated to reduce ischemia related arrhythmia. […] Arterial pressure, blood oxygen saturation (SpO2), and electrocardiogram were monitored closely throughout the procedure. […]
Cardiac performance was evaluated at one month after MI. […] Cardiac function was monitored and recorded for 3 hours after injection.

COc1ccc(-c2nnc(Nc3nc4c(OC)cccc4s3)o2)cc1 [Example 1, N-(4-methoxybenzo[d]thiazol-2-yl)-5-(4-methoxyphenyl)-1,3,4-oxadiazol-2-amine]
cancer cell growth and proliferation [1]: did not induce cancer cell growth and proliferation
SERCA2a SUMOylation in HEK 293 cells [2]: increases SUMOylation of SERCA2a in a dose dependent manner
Tau value (dose response) ([3]; 0.1 μM): 1.3 ± 0.0 ms
Tau value (dose response) ([3]; 1 μM): 1300 ± 100 ms
cell contractility (peak shortening), dose response ([3]; concentration dependent manner, versus DMSO): significantly increased cell contractility
increase in contractility (as measured by dP/dt) [4]: 25-30%
